Source: patent EP4483954A1 (Masarykova Univerzita, priority 2023, dated 2025)

What was measured:
Assay type in all cases: biochemical
TRB2(h) = target: T1, TRB2(h) (Homo sapiens, UniProt Q92519); assay: radiometric kinase assay (KinaseProfiler, Eurofins), TRB2; conditions: in vitro radiometric kinase assay, tested at 1 nM to 10 000 nM, no pre-incubation; read-out: inhibitory activities (IC50 values) TRB2
T1 construct: purchased Eurofins (KinaseProfiler)
T1 sequence (Q92519 1-343): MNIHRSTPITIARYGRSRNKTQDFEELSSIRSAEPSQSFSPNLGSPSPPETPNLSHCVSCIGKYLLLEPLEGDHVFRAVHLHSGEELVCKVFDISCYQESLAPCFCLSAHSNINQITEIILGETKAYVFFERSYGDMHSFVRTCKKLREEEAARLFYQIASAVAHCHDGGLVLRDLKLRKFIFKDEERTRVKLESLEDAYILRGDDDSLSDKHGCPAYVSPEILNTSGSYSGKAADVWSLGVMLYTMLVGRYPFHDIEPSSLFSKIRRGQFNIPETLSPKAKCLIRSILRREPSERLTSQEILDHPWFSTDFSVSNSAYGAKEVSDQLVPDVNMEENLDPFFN
Protocol: (§1) The compounds were profiled in the radiometric assays (KinaseProfiler, Eurofins).
(§2) Briefly, kinases were diluted in the buffer shown below prior to addition to the reaction mix: • CDKL3, TAF1L: 20 mM Tris/HCl pH 8.5, 0.2 mM EDTA, 0.1% β-mercaptoethanol, 0.01% Brij-35, 5% glycerol, 1 mg/ml BSA; • Haspin: 15 mM MOPS, 0.75 mM EDTA, 0.0075% Brij-35, 3.75% Glycerol, 150 mM NaCl, 0.1% β-mercaptoethanol, 1 mg/mLBSA; • CDKL4, CLK2, PIM1, TRB2: […], 1 mM EDTA, 0.01% Brij-35, 5% Glycerol, 0.1% β-mercaptoethanol, 1 mg/mL BSA.
(§3) All compounds were prepared to 50x final assay concentration in 100% DMSO. This working stock of the compound was added to the assay well as the first component in the reaction, followed by the remaining components as detailed in the general assay protocols below. There was no pre-incubation step between the compound and the kinase prior to initiation of the reaction.
(§4) TRB2(h) was incubated with 8 mM MOPS pH 7.0, 0.2 mM EDTA, 250 µM RRRFRPASPLRGPPK (SEQ ID NO. 1), 10 mM magnesium acetate and γ-^33P-ATP (specific activity and concentration as required). The reaction was initiated by the addition of the Mg/ATP mix. After incubation for 120 minutes at room temperature, the reaction was stopped by the addition of phosphoric acid to a concentration of 0.5%. An aliquot of the stopped reaction was spotted onto a filter and washed four times for 4 minutes in 0.425% phosphoric acid and once in methanol prior to drying and scintillation counting.
(§5) Kinase activity data were expressed as the percent remaining kinase activity in tested samples compared to the vehicle (DMSO) reactions. The compounds were tested at the following concentrations: 1 nM, 3 nM, 10 nM, 30 nM, 100 nM, 300 nM, 1000 nM, 3000 nM, and 10 000 nM; IC50 values and curve fits were then obtained.

DYRK2 (h) = target: T2, DYRK2 (h) (Homo sapiens, UniProt Q92630); assay: radiometric kinase assay (KinaseProfiler, Eurofins), DYRK2; conditions: in vitro radiometric kinase assay, tested at 1 nM to 10 000 nM, no pre-incubation; read-out: inhibitory activities (IC50 values) DYRK2
T2 construct: purchased Eurofins (KinaseProfiler)
T2 sequence (Q92630 1-601): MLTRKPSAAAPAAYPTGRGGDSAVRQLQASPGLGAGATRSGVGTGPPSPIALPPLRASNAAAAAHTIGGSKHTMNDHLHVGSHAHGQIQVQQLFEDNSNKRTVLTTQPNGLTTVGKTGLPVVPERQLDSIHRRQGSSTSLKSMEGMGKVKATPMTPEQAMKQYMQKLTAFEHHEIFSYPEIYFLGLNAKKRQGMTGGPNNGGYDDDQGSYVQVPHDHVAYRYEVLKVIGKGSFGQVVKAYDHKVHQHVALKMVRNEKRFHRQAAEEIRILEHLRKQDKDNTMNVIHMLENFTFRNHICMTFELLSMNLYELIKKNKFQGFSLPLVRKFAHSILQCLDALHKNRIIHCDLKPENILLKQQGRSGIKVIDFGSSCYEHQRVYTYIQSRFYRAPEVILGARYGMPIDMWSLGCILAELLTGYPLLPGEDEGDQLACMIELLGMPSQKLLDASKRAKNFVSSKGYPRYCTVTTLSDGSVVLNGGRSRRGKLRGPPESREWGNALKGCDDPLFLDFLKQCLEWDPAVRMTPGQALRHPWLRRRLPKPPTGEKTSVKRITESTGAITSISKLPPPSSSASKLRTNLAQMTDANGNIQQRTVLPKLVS
Protocol: as §1, §3
DYRK2 (h) was incubated with 8 mM MOPS pH 7.0, 0.2 mM EDTA, 2 mg/mL casein, 10 mM magnesium acetate and γ-^33P-ATP (specific activity and concentration as required). The reaction was initiated by the addition of the Mg/ATP mix. After incubation for 40 minutes at room temperature, the reaction was stopped by the addition of phosphoric acid to a concentration of 0.5%. An aliquot of the reaction was then spotted onto a filter and washed four times for 4 minutes in 0.425% phosphoric acid and once in methanol prior to drying and scintillation counting.
as §5

CLK2 (h) = target: T3, CLK2 (h) (Homo sapiens, UniProt P49760); assay: radiometric kinase assay (KinaseProfiler, Eurofins), CLK2; conditions: in vitro radiometric kinase assay, tested at 1 nM to 10 000 nM, no pre-incubation; read-out: inhibitory activities (IC50 values) CLK2
T3 construct: purchased Eurofins (KinaseProfiler)
Protocol: as §1, §2, §3
CLK2 (h) was incubated with 8 mM MOPS pH 7.0, 0.2 mM EDTA, 20 µM […](p)EDEEE (SEQ ID NO. 2), 10 mM magnesium acetate and γ-^33P-ATP (specific activity and concentration as required). The reaction was initiated by the addition of the Mg/ATP mix. After incubation for 40 minutes at room temperature, the reaction was stopped by the addition of phosphoric acid to a concentration of 0.5%. An aliquot of the reaction was then spotted onto a filter and washed four times for 4 minutes in 0.425% phosphoric acid and once in methanol prior to drying and scintillation counting.
as §5

TAF1L(h) = target: T4, TAF1L(h) (Homo sapiens, UniProt Q8IZX4); assay: radiometric kinase assay (KinaseProfiler, Eurofins), TAF1L; conditions: in vitro radiometric kinase assay, tested at 1 nM to 10 000 nM, no pre-incubation; read-out: inhibitory activities (IC50 values) TAF1L
T4 construct: purchased Eurofins (KinaseProfiler)
Protocol: as §1, §2, §3
as §4, with “TAF1L(h)” for “TRB2(h)”, “20” for “8”, “Tris/HCl” for “MOPS”, “8.5,” for “7.0,”
as §5

T4 sequence (Q8IZX4 whole entry): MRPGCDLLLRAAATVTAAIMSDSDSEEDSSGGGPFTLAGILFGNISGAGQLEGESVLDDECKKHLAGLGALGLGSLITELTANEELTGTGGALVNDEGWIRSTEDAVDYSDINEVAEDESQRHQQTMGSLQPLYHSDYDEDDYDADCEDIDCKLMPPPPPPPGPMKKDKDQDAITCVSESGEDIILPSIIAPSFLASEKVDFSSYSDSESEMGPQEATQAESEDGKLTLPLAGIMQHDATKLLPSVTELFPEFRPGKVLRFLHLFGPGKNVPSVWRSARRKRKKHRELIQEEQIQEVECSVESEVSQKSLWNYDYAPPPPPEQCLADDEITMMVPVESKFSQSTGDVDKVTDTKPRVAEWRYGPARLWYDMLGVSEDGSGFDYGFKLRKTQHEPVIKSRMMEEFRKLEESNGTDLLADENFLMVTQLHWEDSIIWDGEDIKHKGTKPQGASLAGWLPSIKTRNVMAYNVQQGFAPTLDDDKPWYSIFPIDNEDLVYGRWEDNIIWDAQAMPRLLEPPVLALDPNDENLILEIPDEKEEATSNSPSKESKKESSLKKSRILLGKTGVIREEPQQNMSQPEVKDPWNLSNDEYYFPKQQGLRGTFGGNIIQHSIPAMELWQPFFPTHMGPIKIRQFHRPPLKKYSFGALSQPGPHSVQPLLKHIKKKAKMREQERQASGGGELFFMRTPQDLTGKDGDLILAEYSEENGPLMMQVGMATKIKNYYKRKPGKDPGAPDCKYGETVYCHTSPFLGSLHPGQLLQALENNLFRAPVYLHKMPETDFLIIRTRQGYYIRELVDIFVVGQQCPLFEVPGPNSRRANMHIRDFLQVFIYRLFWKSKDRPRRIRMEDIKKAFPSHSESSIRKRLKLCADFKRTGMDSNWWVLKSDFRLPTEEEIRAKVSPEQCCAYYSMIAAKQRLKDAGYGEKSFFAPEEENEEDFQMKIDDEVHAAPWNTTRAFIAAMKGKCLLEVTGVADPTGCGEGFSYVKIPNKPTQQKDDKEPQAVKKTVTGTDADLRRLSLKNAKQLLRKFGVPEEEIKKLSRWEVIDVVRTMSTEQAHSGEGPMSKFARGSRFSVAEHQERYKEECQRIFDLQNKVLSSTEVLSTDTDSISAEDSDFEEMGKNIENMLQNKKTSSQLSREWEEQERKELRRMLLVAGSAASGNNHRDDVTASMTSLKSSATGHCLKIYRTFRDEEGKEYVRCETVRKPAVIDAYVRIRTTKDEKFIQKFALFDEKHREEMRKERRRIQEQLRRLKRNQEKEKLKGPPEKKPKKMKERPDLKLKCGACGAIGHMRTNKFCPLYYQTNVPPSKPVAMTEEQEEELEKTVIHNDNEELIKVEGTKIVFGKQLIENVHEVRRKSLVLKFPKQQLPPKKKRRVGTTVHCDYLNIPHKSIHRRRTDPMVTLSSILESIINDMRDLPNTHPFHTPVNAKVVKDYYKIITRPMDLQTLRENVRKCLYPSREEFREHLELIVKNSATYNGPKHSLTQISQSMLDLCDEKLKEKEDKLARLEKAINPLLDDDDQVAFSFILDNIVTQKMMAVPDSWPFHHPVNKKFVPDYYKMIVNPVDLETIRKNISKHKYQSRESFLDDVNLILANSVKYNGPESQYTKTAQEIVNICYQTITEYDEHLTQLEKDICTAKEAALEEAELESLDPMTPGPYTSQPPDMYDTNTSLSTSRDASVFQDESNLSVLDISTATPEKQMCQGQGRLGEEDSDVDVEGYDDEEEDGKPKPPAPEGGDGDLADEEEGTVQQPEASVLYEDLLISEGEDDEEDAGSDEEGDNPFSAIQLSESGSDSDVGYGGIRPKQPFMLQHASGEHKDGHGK
T3 sequence (P49760 whole entry): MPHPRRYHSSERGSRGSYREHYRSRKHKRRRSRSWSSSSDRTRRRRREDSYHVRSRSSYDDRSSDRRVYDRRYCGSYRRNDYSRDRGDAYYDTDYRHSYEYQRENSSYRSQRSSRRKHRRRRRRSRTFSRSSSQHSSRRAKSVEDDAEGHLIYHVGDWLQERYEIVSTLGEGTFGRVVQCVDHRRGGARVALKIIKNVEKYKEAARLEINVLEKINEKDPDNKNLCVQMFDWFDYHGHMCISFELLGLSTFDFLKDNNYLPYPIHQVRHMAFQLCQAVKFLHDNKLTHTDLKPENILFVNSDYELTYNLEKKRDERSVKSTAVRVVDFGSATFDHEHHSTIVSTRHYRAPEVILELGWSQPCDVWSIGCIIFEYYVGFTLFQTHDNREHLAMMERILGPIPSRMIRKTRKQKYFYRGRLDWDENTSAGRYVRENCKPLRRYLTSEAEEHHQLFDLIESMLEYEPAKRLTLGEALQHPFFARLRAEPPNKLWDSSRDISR

| SMILES | IC50 (TRB2(h)) [nM] | IC50 (DYRK2 (h)) [nM] | IC50 (CLK2 (h)) [nM] | IC50 (TAF1L(h)) [nM] |
| --- | --- | --- | --- | --- |
| Cn1cc(-c2ccc3scc(Nc4ccccc4)c3n2)cn1 [Preparative Example 76, 5-(1-methyl-1H-pyrazol-4-yl)-N-phenylthieno[3,2-b]pyridin-3-amine] | 100 to 499 | 100 to 499 | 500 to 3000 | 20 to 99 |
| Cn1ccc(-c2ccc3scc(-c4ccncc4)c3n2)n1 [Preparative Example 86, 5-(1-methyl-1H-pyrazol-3-yl)-3-(pyridin-4-yl)thieno[3,2-b]pyridine] | 3000 to 10000 | 3000 to 10000 | 3000 to 10000 | 500 to 3000 |
| Cc1cc2scc(-c3ccncc3)c2nc1-c1cnn(C)c1 [Preparative Example 150, 6-methyl-5-(1-methyl-1H-pyrazol-4-yl)-3-(pyridin-4-yl)thieno[3,2-b]pyridine] | 500 to 3000 | 3000 to 10000 | 3000 to 10000 | 500 to 3000 |
| Cc1cc(-c2cnn(C)c2)nc2c(-c3ccncc3)csc12 [Preparative Example 157, 7-methyl-5-(1-methyl-1H-pyrazol-4-yl)-3-(pyridin-4-yl)thieno[3,2-b]pyridine] | 500 to 3000 | 3000 to 10000 | 3000 to 10000 | 3000 to 10000 |
| Cn1cc(-c2ccc3scc(C(O)c4ccccc4)c3n2)cn1 (stereo not shown) [Preparative Example 74] | 500 to 3000 | 3000 to 10000 | 500 to 3000 | 100 to 499 |
| Cc1cnccc1-c1csc2ccc(-c3cnn(C)c3)nc12 [Preparative Example 32, 5-(1-methyl-1H-pyrazol-4-yl)-3-(3-methylpyridin-4-yl)thieno[3,2-b]pyridine] | 3000 to 10000 | 3000 to 10000 | 3000 to 10000 | 500 to 3000 |
| c1cc(-c2csc3ccc(Nc4cc[nH]n4)nc23)ccn1 [Preparative Example 101, N-(1H-pyrazol-3-yl)-3-(pyridin-4-yl)thieno[3,2-b]pyridin-5-amine] | 20 to 99 | 500 to 3000 | 100 to 499 | 20 to 99 |
| Cn1cc(-c2ccc3scc(-c4ccncc4F)c3n2)cn1 [Preparative Example 36, 3-(3-fluoropyridin-4-yl)-5-(1-methyl-1H-pyrazol-4-yl)thieno[3,2-b]pyridine] | 100 to 499 | 500 to 3000 | 500 to 3000 | 100 to 499 |
| CC(C)n1cc(-c2ccc3scc(-c4ccncc4)c3n2)cn1 [Preparative Example 79, 5-(1-isopropyl-1H-pyrazol-4-yl)-3-(pyridin-4-yl)thieno[3,2-b]pyridine] | 500 to 3000 | 3000 to 10000 | 3000 to 10000 | 3000 to 10000 |
| Cn1cc(-c2ccc3scc(-c4ccncc4)c3n2)c(N)n1 [Preparative Example 84, 1-methyl-4-(3-(pyridin-4-yl)thieno[3,2-b]pyridin-5-yl)-1H-pyrazol-3-amine] | 500 to 3000 | 3000 to 10000 | 3000 to 10000 | 500 to 3000 |
| Cn1cc(-c2ccc3scc(C(=O)c4ccccc4)c3n2)cn1 [Preparative Example 73, (5-(1-methyl-1H-pyrazol-4-yl)thieno[3,2-b]pyridin-3-yl)(phenyl)-methanone] | 3000 to 10000 | 3000 to 10000 | 3000 to 10000 | 3000 to 10000 |
| Cn1cncc1-c1ccc2scc(-c3ccncc3)c2n1 [Preparative Example 91, 5-(1-methyl-1H-imidazol-5-yl)-3-(pyridin-4-yl)thieno[3,2-b]pyridine] | 500 to 3000 | 500 to 3000 | 500 to 3000 | 100 to 499 |
| Cn1ncc(-c2ccc3scc(-c4ccncc4)c3n2)n1 [Preparative Example 94, 5-(2-methyl-2H-1,2,3-triazol-4-yl)-3-(pyridin-4-yl)thieno[3,2-b]pyridine] | 500 to 3000 | 3000 to 10000 | 3000 to 10000 | 500 to 3000 |
| Cn1cc(-c2ccc3scc(-c4cccnc4)c3n2)cn1 [Preparative Example 11, 5-(1-methyl-1H-pyrazol-4-yl)-3-(pyridin-3-yl)thieno[3,2-b]pyridine] | 500 to 3000 | 500 to 3000 | 3000 to 10000 | 500 to 3000 |
| Cn1cc(-c2ccc3scc(-c4cncs4)c3n2)cn1 [Preparative Example 69, 5-(1-methyl-1H-pyrazol-4-yl)-3-(thiazol-5-yl)thieno[3,2-b]pyridine] | 100 to 499 | 100 to 499 | 500 to 3000 | 20 to 99 |
| Cn1cc(-c2csc3ccc(Oc4ccccc4)nc23)cn1 [Preparative Example 139, 3-(1-methyl-1H-pyrazol-4-yl)-5-phenoxythieno[3,2-b]pyridine] | 500 to 3000 | 3000 to 10000 | 500 to 3000 | 500 to 3000 |
| Cn1nccc1-c1ccc2scc(-c3ccncc3)c2n1 [Preparative Example 90, 5-(1-methyl-1H-pyrazol-5-yl)-3-(pyridin-4-yl)thieno[3,2-b]pyridine] | 500 to 3000 | 3000 to 10000 | 3000 to 10000 | 500 to 3000 |
| Cc1sc2ccc(-c3cnn(C)c3)nc2c1-c1ccncc1 [Preparative Example 142, 2-methyl-5-(1-methyl-1H-pyrazol-4-yl)-3-(pyridin-4-yl)thieno[3,2-b]pyridine] | 500 to 3000 | 500 to 3000 | 3000 to 10000 | 500 to 3000 |
| Cn1cc(-c2ccc3scc(C4=CCNCC4)c3n2)cn1 [Preparative Example 9, 5-(1-methyl-1H-pyrazol-4-yl)-3-(1,2,3,6-tetrahydropyridin-4-yl)-thieno[3.2-b]pyridine] | 3000 to 10000 | 3000 to 10000 | 3000 to 10000 | 500 to 3000 |
